Results as given in patent US20250171431A1, “HETEROCYCLIC INHIBITORS OF IGF-1R FOR TREATMENT OF DISEASE” (HORIZON THERAPEUTICS IRELAND DAC, priority 2023, published 2025).
pIC50: −log10 of the molar value.

target: IGF-1R (Homo sapiens (Human), UniProt P08069); assay: Example B-1: IGF-1R Assay (PC3 cells, IGF1 stimulation, AlphaLISA); type: cell-based; details: 200 ng/mL IGF1 stimulation, read-out: Biological Activity against IGF-1R IC50
Procedure: 50K PC3 cells were seeded on day 1 in 50 μL of media in 96-well plate and incubated overnight at 37° C., 5% CO2. On day 2, all cells were expected to be at 80-90% confluency. Cells were starved for two hours by changing the media to 90 μL of EMEM serum-free media and incubated for 2 hours. Next, cells were treated with 10 μL of 10× concentrated and 3× serially diluted compounds for two hours. It makes 1× of compounds in 100 μL media. This was followed by stimulation of cells with 11×IGF1 for 30 min in 10 μL of serum-free EMEM media at the final concentration of 200 ng/mL.
The media was removed and replaced by 50 μL of 1× lysis buffer from the AlphaLISA kit (with 1× of cOmplete™ protease inhibitor). The plates were sealed, and cells were allowed to lyse for 10 min in the shaker before storing the plate at −20° C. until used. The AlphaLISA assay with processed cell lysates were performed as described in the protocol. Briefly, 10 μL of the undiluted sample were loaded to 384 well Optiplates and 5 μL of the acceptor mix (as described in the AlphaLISA kit) was added to each well. The plates were sealed and briefly vortexed followed by the incubation at RT for 3 hours. In the dark, 5 μL of donor mix was added to each well. All plates were sealed and stored at RT overnight. The plates were read in EnVision reader using standard AlphaLISA settings.
Compound activity was analyzed using CBIS data analysis suite (ChemInnovation, CA). Percentage inhibition was calculated using the following formula: % Inhibition=100%×(1−(mean RLU of test sample−mean RLU of vehicle control)/(mean RLU of EC80 control−mean RLU of vehicle control)). The activity for representative examples of the invention is shown in the following table, wherein A: IC50≤500 nM; B: 500 nM<IC50≤2 μM; C: 2 μM<IC50≤10 μM; D: IC50>10 μM.

Chain of IGF-1R (P08069 31-1367): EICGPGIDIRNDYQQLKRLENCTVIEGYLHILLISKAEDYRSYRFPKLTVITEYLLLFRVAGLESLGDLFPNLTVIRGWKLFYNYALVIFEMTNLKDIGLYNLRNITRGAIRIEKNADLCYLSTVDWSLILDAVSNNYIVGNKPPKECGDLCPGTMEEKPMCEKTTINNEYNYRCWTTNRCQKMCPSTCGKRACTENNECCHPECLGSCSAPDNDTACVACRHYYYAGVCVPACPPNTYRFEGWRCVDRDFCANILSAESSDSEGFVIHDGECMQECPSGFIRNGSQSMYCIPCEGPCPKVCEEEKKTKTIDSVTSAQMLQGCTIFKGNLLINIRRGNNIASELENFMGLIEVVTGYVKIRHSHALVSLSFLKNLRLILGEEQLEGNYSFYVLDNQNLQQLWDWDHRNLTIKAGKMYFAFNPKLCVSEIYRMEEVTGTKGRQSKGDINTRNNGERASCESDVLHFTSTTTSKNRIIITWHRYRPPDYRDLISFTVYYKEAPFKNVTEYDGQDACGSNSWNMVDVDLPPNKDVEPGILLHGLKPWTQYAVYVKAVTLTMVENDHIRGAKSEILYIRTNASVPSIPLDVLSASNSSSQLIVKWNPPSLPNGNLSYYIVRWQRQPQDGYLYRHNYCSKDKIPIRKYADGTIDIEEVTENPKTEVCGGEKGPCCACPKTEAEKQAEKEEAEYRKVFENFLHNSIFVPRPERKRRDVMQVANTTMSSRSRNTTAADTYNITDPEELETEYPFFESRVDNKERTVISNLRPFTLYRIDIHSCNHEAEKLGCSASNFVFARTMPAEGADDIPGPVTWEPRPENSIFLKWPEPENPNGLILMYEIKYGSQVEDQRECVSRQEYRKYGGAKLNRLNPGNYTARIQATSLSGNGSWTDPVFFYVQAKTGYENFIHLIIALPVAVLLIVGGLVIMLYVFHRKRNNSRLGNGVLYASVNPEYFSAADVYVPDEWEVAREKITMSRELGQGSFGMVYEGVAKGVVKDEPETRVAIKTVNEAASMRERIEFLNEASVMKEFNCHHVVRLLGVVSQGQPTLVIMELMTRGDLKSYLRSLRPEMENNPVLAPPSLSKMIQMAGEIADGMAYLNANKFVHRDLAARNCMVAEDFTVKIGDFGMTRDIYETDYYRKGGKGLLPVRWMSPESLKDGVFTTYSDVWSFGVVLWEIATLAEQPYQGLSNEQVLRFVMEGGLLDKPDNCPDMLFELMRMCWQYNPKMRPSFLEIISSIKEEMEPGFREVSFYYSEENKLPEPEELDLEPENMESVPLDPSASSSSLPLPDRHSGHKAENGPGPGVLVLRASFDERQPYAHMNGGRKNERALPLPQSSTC

SMILES | pIC50
COc1cc(Nc2nccc(Nc3cc4ccccc4nc3C(=O)O)n2)ccc1O[C@H]1C[C@@H](N(C)C)C1 [Compound 296, 3-(2-{3-methoxy-4-[(1s,3s)-3-(dimethylamino)cyclobutoxy]phenylamino}-4-pyrimidinylamino)-2-quinolinecarboxylic acid] | < 5.00
COc1cc(Nc2nccc(Nc3cnc4c(c3)O[C@H]3CCC[C@@H]3O4)n2)ccc1O[C@H]1C[C@@H](N(C)C)C1 [Compound 192, 4-{(3S,7S)-2,8-dioxa-10-azatricyclo[7.4.0.03,7]trideca-1(13),9,11-trien-12-ylamino}-2-{3-methoxy-4-[(1s,3R)-3-(dimethylamino)cyclobutoxy]phenylamino}pyrimidine] | ≥ 6.30
COc1cc(Nc2nccc(Nc3cc4cccc(Cl)c4[nH]c3=O)n2)ccc1O[C@H]1C[C@H](N(C)C)C1 [Compound 112, 8-chloro-3-(2-{3-methoxy-4-[(1r,3r)-3-(dimethylamino)cyclobutoxy]phenyl-amino}-4-pyrimidinylamino)-1,2-dihydro-2-quinolinone] | ≥ 6.30
COc1cc(Nc2nccc(Nc3cc4ccccc4nc3C(N)=O)n2)cnc1O[C@H]1C[C@@H](N(C)C)C1 [Compound 172, 3-((2-((6-((1s,3s)-3-(dimethylamino)cyclobutoxy)-5-methoxypyridin-3-yl)amino)pyrimidin-4-yl)amino)quinoline-2-carboxamide] | ≥ 6.30
COc1cc(N2CCN(C3COC3)CC2)ncc1Nc1nccc(Nc2cc3cccc(F)c3[nH]c2=O)n1 [Compound 225, 8-fluoro-3-(2-{4-methoxy-6-[4-(3-oxetanyl)-1-piperazinyl]-3-pyridylamino}-4-pyrimidinylamino)-1,2-dihydro-2-quinolinone] | ≥ 6.30
C#Cc1ccc2ncc(Nc3ccnc(Nc4ccc(O[C@H]5C[C@@H](N(C)C)C5)c(OC)c4)n3)cc2c1 [Compound 302, 4-(6-ethynyl-3-quinolylamino)-2-{3-methoxy-4-[(1s,3s)-3-(dimethylamino)cyclobutoxy]phenylamino}pyrimidine] | ≥ 6.30
COc1ccc2cc(Nc3ccnc(Nc4ccc(O[C@H]5C[C@H](N(C)C)C5)c(OC)c4)n3)cnc2c1 [Compound 337, 4-(7-methoxy-3-quinolylamino)-2-{3-methoxy-4-[(1r,3r)-3-(dimethylamino)cyclobutoxy]phenylamino}pyrimidine] | ≥ 6.30
COc1cc(Nc2nccc(Nc3cnc4ccc(Cl)cc4c3)n2)ccc1O[C@H]1C[C@@H](N(C)C)C1 [Compound 343, 4-(6-chloro-3-quinolylamino)-2-{3-methoxy-4-[(1s,3s)-3-(dimethylamino)cyclobutoxy]phenylamino}pyrimidine] | ≥ 6.30
COC1CCc2ncc(Nc3ccnc(Nc4ccc(OCCCN5CCOCC5)cc4)n3)cc2C1 (centres unmarked) [Compound 67, 4-(6-methoxy-5,6,7,8-tetrahydro-3-quinolylamino)-2-[p-(3-morpholinopropoxy)phenylamino] pyrimidine] | 5.70 to 6.30
COc1ccc2cc(Nc3ccnc(Nc4ccc(O[C@H]5C[C@H](N(C)C)C5)cc4)n3)cnc2c1 [Compound 355, 4-(7-methoxy-3-quinolylamino)-2-{p-[(1r,3r)-3-(dimethylamino)cyclobutoxy]phenylamino}pyrimidine] | 5.70 to 6.30
COc1cc(Nc2nccc(Nc3cnc4ccc(Cl)cc4c3)n2)cnc1O[C@H]1C[C@@H](N(C)C)C1 [Compound 131, N4-(6-chloroquinolin-3-yl)-N2-(6-((1s,3s)-3-(dimethylamino)cyclobutoxy)-5-methoxypyridin-3-yl)pyrimidine-2,4-diamine] | ≥ 6.30
COc1cc(Nc2nccc(Nc3cnc4cc(C)ccc4c3)n2)ccc1OCCCN1CCCCC1 [Compound 98, 2-[3-methoxy-4-(3-piperidinopropoxy)phenylamino]-4-(7-methyl-3-quinolylamino)pyrimidine] | ≥ 6.30
CN(C)[C@H]1C[C@H](Oc2ccc(Nc3nccc(Nc4cnc5ccccc5c4)n3)cc2C#N)C1 [Compound 42, 5-[4-(3-quinolylamino)-2-pyrimidinylamino]-2-[(1r,3r)-3-(dimethylamino)cyclobutoxy] benzonitrile] | ≥ 6.30
COc1cc(Nc2nccc(Nc3ccc4c(O)nccc4c3)n2)ccc1O[C@H]1C[C@@H](N(C)C)C1 [Compound 266, 6-(2-{3-methoxy-4-[(1s,3s)-3-(dimethylamino)cyclobutoxy]phenylamino}-4-pyrimidinylamino)-1-isoquinolinol] | ≥ 6.30
COc1cc(Nc2nccc(Nc3cnc4ccc(OC(F)(F)F)cc4c3)n2)ccc1OCCCN1CCCCC1 [Compound 6, 2-[3-methoxy-4-(3-piperidinopropoxy)phenylamino]-4-(6-trifluoromethoxy-3-quinolylamino)pyrimidine] | ≥ 6.30
COc1cc(Nc2nccc(Nc3cnc4cc(Br)ccc4c3)n2)ccc1O[C@H]1C[C@H](N(C)C)C1 [Compound 328, 4-(7-bromo-3-quinolylamino)-2-{3-methoxy-4-[(1r,3r)-3-(dimethylamino)cyclobutoxy]phenylamino}pyrimidine] | ≥ 6.30

More lines, now with the values ahead:

pIC50 | SMILES
≥ 6.30 | COc1cc(Nc2nccc(Nc3cnc4ccc(Cl)cc4c3)n2)cnc1N1CCN(C2COC2)CC1 [Compound 481, 4-(6-chloro-3-quinolylamino)-2-{5-methoxy-6-[4-(3-oxetanyl)-1-piperazinyl]-3-pyridylamino}pyrimidine]
5.70 to 6.30 | COc1cc(Nc2nccc(Nc3cc4ccccc4nc3C)n2)ccc1OCCCN1CCCCC1 [Compound 424, 2-[3-methoxy-4-(3-piperidinopropoxy)phenylamino]-4-(2-methyl-3-quinolylamino)pyrimidine]
5.70 to 6.30 | Cc1ccc2cc(Nc3ccnc(Nc4ccc(OCCCN5CCOCC5)cc4)n3)cnc2c1 [Compound 407, 4-(7-methyl-3-quinolylamino)-2-[p-(3-morpholinopropoxy)phenylamino]pyrimidine]
≥ 6.30 | COc1cc(Nc2nccc(Nc3cnc4c(Cl)cccc4c3)n2)ccc1O[C@H]1CC[C@@H](N(C)C)CC1 [Compound 332, 4-(8-chloro-3-quinolylamino)-2-{3-methoxy-4-[(1s,4s)-4-(dimethylamino)cyclohexyloxy]phenylamino}pyrimidine]
≥ 6.30 | COc1cc(Nc2nccc(Nc3ccc4c(c3)CCC(=O)N4)n2)ccc1OCCCN1CCCCC1 [Compound 448, 6-{2-[3-methoxy-4-(3-piperidinopropoxy)phenylamino]-4-pyrimidinylamino}-3,4-dihydro-2(1H)-quinolinone]
≥ 6.30 | COc1cc(Nc2nccc(Nc3cnc4ccc(Br)cc4c3)n2)ccc1OCCCN1CCCCC1 [Compound 421, 4-(6-bromo-3-quinolylamino)-2-[3-methoxy-4-(3-piperidinopropoxy)phenylamino]pyrimidine]
≥ 6.30 | COc1nc(N2CCC(C)(O)CC2)ccc1Nc1nccc(Nc2cnc3cc(F)c(F)cc3c2)n1 [Compound 487, 1-{5-[4-(6,7-difluoro-3-quinolylamino)-2-pyrimidinylamino]-6-methoxy-2-pyridyl}-4-methyl-4-piperidinol]
≥ 6.30 | COc1cc(Nc2nccc(Nc3cc4cccc(F)c4[nH]c3=O)n2)cnc1N1CCNC(C(F)(F)F)C1 (centres unmarked) [Compound 239, 8-fluoro-3-(2-{5-methoxy-6-[3-(trifluoromethyl)-1-piperazinyl]-3-pyridylamino}-4-pyrimidinylamino)-1,2-dihydro-2-quinolinone]
≥ 6.30 | O=S1(=O)CCN(CCCOc2ccc(Nc3nccc(Nc4cnc5c(Cl)cccc5c4)n3)cc2)CC1 [Compound 398, 4-(3-{p-[4-(8-chloro-3-quinolylamino)-2-pyrimidinylamino]phenoxy}propyl)-1λ^6,4-thiazinane-1,1-dione]
≥ 6.30 | COc1cc(Nc2nccc(Nc3cc4cccc(F)c4[nH]c3=O)n2)cnc1N1CCN(C)C(C)(C)C1 [Compound 229, 3-{2-[6-(3,3-dimethyl-4-methyl-1-piperazinyl)-5-methoxy-3-pyridylamino]-4-pyrimidinylamino}-8-fluoro-1,2-dihydro-2-quinolinone]
≥ 6.30 | COc1cc(N2CCN(CC#N)CC2)ncc1Nc1nccc(Nc2cc3cccc(F)c3[nH]c2=O)n1 [Compound 226, (4-{5-[4-(8-fluoro-2-oxo-1,2-dihydro-3-quinolylamino)-2-pyrimidinylamino]-4-methoxy-2-pyridyl}-1-piperazinyl)acetonitrile]
5.70 to 6.30 | COc1cc(Nc2nccc(Nc3cnc4cc(F)c(F)cc4c3)n2)cnc1N1CCN(C)C(C(F)(F)F)C1 (centres unmarked) [Compound 475, 4-(6,7-difluoro-3-quinolylamino)-2-{5-methoxy-6-[4-methyl-3-(trifluoromethyl)-1-piperazinyl]-3-pyridylamino}pyrimidine]
≥ 6.30 | COc1cc(Nc2nccc(Nc3cnc4ccc(Cl)cc4c3)n2)ccc1N1CCOCC1 [Compound 462, 4-(6-chloro-3-quinolylamino)-2-(3-methoxy-4-morpholinophenylamino) pyrimidine]
